Measurements published in ChEMBL document CHEMBL5725581, “Compounds and compositions for treating HIV with derivatives of Betulin” (2018).

Assay: MT4 Cell Antiviral Assay: Antiviral HIV activity and compound-induced cytotoxicity were measured in parallel by means of a propidium iodide based procedure in the human T-cell lymphotropic virus transformed cell line MT4. Aliquots of the test compounds were serially diluted in medium (RPMI 1640, 10% fetal calf serum (FCS), and gentamycin) in 96-well plates (Costar 3598) using a Cetus Pro/Pette. …
Description: MT4 Cell Antiviral Assay: Antiviral HIV activity and compound-induced cytotoxicity were measured in parallel by means of a propidium iodide based procedure in the human T-cell lymphotropic virus transformed cell line MT4. […] Exponentially growing MT4 cells were harvested and centrifuged at 1000 rpm for 10 min in a Jouan centrifuge (model CR 4 12). […] Cell infection was allowed to proceed for 1 hr at 37° C. in a tissue culture incubator with humidified 5% CO2 atmosphere. After the 1 hr incubation the virus/cell suspensions were diluted 6-fold with fresh medium, and 125 μl of the cell suspension was added to each well of the plate containing pre-diluted compound. Plates were then placed in a tissue culture incubator with humidified 5% CO2 for 5 days. […] After thorough mixing with a Costar multitip pipetter, 60 μl of the mixture was transferred to filter-bottomed 96-well plates. The plates were analyzed in an automated assay instrument (Screen Machine, Idexx Laboratories). The control and standard used was 3′-azido-3′-deoxythymidine tested over a concentration range of 0.01 to 1 μM in every assay. […] The assay makes use of a propidium iodide dye to estimate the DNA content of each well.For MTS readout, 20 μl CellTiter 96 AQ One Solution reagent (Promega #G3582) was added to each well.

| Structure (SMILES) | EC50 [µM] | EC50 (MT4, 10 min) [µM] |
| --- | --- | --- |
| CC(C)C1=C2[C@H]3CC[C@@H]4[C@@]5(C)CC[C@H](OC(=O)CC(C)(C)CC(=O)O)C(C)(C)[C@@H]5CC[C@@]4(C)[C@]3(C)CC[C@@]2([C@H](O)CNCc2ccc(Cl)cc2)CC1=O | 0.104 | – |
| CC(C)NC[C@H](O)[C@@]12CC[C@]3(C)[C@H](CC[C@@H]4[C@@]5(C)CC[C@H](OC(=O)CC(C)(C)C(=O)O)C(C)(C)[C@@H]5CC[C@]43C)C1=C(C(C)C)C(=O)C2 | – | 0.0315 |
